According to patent US20040072770A1, “Methods for specifically inhibiting histone deacetylase-7 and 8” (priority 2002, published 2004):

What was measured:
[1] = biological target: T1, HDAC-6 (Homo sapiens, UniProt Q9UBN7); experiment: Enzyme inhibitory activity, HD6; type: biochemical; conditions: read-out: IC50 HD 6
T1 sequence (Q9UBN7 1-1215): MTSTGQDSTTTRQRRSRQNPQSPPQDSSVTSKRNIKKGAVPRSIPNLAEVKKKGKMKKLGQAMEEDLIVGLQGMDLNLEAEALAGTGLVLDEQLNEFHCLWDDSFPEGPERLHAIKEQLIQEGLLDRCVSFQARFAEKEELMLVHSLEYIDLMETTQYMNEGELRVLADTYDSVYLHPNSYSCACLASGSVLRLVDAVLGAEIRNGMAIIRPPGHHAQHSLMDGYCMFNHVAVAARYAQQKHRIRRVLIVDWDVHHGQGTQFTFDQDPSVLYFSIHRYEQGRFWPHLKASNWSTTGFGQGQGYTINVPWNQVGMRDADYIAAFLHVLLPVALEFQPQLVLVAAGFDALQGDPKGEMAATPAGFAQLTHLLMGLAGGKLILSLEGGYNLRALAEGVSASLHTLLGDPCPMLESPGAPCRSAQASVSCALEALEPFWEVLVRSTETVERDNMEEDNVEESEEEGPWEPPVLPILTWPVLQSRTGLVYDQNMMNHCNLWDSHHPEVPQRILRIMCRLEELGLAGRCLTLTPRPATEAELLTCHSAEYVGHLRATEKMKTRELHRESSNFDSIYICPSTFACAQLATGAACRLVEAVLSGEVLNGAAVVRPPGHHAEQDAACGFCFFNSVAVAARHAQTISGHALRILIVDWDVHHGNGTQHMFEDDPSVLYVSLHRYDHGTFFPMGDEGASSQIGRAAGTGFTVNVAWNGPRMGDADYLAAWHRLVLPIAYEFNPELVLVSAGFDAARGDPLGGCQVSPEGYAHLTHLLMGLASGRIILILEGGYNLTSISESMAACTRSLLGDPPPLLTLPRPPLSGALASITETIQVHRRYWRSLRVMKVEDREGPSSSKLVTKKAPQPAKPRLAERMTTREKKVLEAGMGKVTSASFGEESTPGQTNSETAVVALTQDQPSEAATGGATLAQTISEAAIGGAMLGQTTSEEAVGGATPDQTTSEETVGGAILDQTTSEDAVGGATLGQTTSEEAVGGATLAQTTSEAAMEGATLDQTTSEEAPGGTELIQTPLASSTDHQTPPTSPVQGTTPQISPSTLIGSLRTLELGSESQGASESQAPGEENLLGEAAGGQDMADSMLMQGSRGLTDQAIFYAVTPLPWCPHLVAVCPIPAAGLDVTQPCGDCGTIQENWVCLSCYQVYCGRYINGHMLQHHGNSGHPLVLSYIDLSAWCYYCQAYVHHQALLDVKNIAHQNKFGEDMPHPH

[2] = biological target: T2, HDAC-7 (Homo sapiens, UniProt Q8WUI4); experiment: Enzyme inhibitory activity, HD7; type: biochemical; conditions: read-out: IC50 HD 7
T2 sequence (Q8WUI4 1-952): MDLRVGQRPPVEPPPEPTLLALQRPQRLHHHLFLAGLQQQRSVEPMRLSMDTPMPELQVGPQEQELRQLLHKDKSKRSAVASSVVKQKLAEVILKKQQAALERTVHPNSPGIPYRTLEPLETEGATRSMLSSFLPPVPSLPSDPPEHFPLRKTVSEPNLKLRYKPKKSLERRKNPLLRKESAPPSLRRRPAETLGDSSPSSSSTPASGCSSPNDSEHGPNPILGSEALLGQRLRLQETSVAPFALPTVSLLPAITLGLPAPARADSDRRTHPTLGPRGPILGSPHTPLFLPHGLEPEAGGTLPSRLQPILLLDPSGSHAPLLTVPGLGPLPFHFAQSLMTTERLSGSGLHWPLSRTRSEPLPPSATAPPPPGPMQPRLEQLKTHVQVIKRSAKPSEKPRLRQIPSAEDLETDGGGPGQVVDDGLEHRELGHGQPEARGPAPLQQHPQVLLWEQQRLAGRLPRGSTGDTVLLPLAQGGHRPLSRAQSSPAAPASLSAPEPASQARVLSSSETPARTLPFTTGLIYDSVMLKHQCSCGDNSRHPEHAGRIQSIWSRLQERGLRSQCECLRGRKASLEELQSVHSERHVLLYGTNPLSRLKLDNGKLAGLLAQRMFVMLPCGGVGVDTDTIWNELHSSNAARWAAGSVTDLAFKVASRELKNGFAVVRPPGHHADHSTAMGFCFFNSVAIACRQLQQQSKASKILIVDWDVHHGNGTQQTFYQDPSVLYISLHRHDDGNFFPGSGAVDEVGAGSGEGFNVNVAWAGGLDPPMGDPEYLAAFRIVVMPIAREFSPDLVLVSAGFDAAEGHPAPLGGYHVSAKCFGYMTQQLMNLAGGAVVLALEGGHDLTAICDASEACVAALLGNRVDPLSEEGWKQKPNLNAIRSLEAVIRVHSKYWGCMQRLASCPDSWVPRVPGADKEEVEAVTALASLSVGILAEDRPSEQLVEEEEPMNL

[3] = system: colon cancer cells HCT116; experiment: MTT assay, HCT116; type: cell-based, human; conditions: Homo sapiens, HCT-116; 72 hours
Protocol: (§1) Effects of HDAC isotype-specific small molecule inhibitors on growth inhibition of various human cancer cells (from ATCC) in vitro were determined by MTT assays. Briefly, cells seeded in 96-well plates were incubated for 72 hours at 37° C. in a 5% CO2 incubator. MTT (Sigma) was added at a final concentration of 0.5 mg/ml and incubated with the cells for 4 hours before an equal volume of solubilization buffer (50% N,N-dimethylformamide, 20% SDS, pH 4.7) was added onto cultured cells. After overnight incubation, solubilized dye was quantified by colorimetric reading at […] using a reference at 630 nM. OD values were converted to cell numbers according to a standard growth curve of the relevant cell line. The concentration which reduces cell numbers to 50% of those of DMSO-treated cells is determined as MTT IC50. In Table 4, IC50s of several HDAC7 or HDAC8 inhibitors in MTT assays in various human cancer cell lines were listed. They include colon cancer cells HCT116 and SW48, lung cancer cells A549 and H446, breast cancer cells MCF-7 and MDAmb231, a prostate cancer cell line Du145 and a bladder cancer cell line T24.

[4] = system: prostate cancer cell line Du145; experiment: MTT assay, Du145; type: cell-based; conditions: Homo sapiens, DU-145; 72 hours
Protocol: as §1

[5] = system: lung cancer cells A549; experiment: MTT assay, A549; type: cell-based; conditions: Homo sapiens, 72 hours, read-out: IC50 A 549 (MTT)
Protocol: as §1

[6] = system: breast cancer cells MCF-7; experiment: MTT assay, MCF-7; type: cell-based; conditions: Homo sapiens, MCF7; 72 hours
Protocol: as §1

[7] = system: breast cancer cells MDAmb231; experiment: MTT assay, MDAmb231; type: cell-based; conditions: Homo sapiens, MDA-MB-231; 72 hours
Protocol: as §1

Compound	IC50 [1] [µM]	IC50 [2] [µM]	IC50 [3] [µM]	IC50 [4] [µM]	IC50 [5] [µM]	IC50 [6] [µM]	IC50 [7] [µM]
COc1ccc(NCc2ccc(C(=O)Nc3ccccc3N)cc2)cc1OC [Compound 17, N-(2-Aminophenyl)-4-[(3,4-dimethoxyphenylamino)-methyl]-benzamide]	> 50	45	0.4	2	3	3	2
Nc1ccccc1NC(=O)c1ccc(CSc2nc3ccccc3[nH]2)cc1 [Compound 16, N-(2-Amino-phenyl)-4-(1H-benzimidazol-2-ylsulfanylmethyl)-benzamide]	> 50	38	0.2	0.7	2	3	1
Cc1ccc(S(=O)(=O)Nc2ccc(/C=C/C(=O)Nc3ccccc3N)cc2)cc1 [Compound 5, N-(2-Aminophenyl)-3-[4-(4-methylbenzenesulfonylamino)-phenyl]-acrylamide]	> 50	20	4	2	8	6	2
COc1ccc(-c2ccnc(NCc3ccc(C(=O)Nc4ccccc4N)cc3)n2)cc1OC [Compound 21, N-(2-Amino-phenyl)-4-{[4-(3,4-dimethoxy-phenyl)-pyrimidin-2-ylamino]-methyl}-benzamide]	> 50	37	0.1	0.5	0.3	0.7	0.5
